Experimental data taken from ChEMBL document CHEMBL1155105, “Synthesis of N-alkyl glycine amides as potent inhibitors of leukotriene A4 hydrolase” (Bioorg Med Chem Lett, 2008).

Experiments:
[1] = biological target: T1, Leukotriene A-4 hydrolase (Homo sapiens, UniProt P09960)
T1 sequence (P09960 whole entry): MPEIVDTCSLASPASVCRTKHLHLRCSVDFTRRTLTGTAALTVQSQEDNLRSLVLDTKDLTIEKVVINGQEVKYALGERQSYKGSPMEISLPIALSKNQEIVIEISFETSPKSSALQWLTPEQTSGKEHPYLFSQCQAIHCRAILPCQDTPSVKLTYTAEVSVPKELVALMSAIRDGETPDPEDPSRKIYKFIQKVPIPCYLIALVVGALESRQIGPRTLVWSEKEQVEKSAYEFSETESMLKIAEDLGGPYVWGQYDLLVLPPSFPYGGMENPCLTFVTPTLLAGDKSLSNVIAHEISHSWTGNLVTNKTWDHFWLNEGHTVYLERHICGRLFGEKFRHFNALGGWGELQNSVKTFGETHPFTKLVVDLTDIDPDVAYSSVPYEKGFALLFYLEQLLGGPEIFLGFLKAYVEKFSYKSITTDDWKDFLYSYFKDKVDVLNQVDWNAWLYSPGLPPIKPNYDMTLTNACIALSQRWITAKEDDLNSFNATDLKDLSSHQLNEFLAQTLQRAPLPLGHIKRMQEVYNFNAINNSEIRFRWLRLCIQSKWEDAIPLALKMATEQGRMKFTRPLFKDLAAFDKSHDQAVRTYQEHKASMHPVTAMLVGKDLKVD

[2] = biological target: T1, Leukotriene A-4 hydrolase; remark: listed apart in the source
[3] = biological target: T1, Leukotriene A-4 hydrolase; remark: listed apart in the source
[4] = Metabolic stability in rat microsomes assessed as compound remaining after 1 hr; assay type: ADME, Microsome; conditions: read-out: Stability
[5] = Half life in iv dosed rat; assay type: ADME, organism-based; conditions: in vivo
[6] = Clearance in iv dosed rat; assay type: ADME, organism-based; conditions: in vivo
[7] = Oral bioavailability in rat; assay type: ADME, organism-based; conditions: in vivo

SMILES	IC50 [1] [µM]	IC50 [2] [µM]	further results
CN(CCCN(C)CC(=O)Nc1ccc(Oc2ccccc2)cc1)CCc1ccc(C(=O)O)cc1	0.08	0.003	
CN(CCCN(C)Cc1ccc(C(=O)O)cc1)CC(=O)Nc1ccc(Oc2ccc(F)cc2)cc1	0.12	0.006	
CN(Cc1ccc(C(=O)O)cc1)CC1CCCCN1CC(=O)Nc1ccc(Oc2ccccc2)cc1 (stereo in doubt; 4n)	0.1	0.017	
O=C(CN1CC2CC1CN2Cc1ccc(C(=O)O)cc1)Nc1ccc(Oc2ccccc2)cc1 (stereo not given)	0.24	0.044	
CN(Cc1ccc(C(=O)O)cc1)CC1CCCN1CC(=O)Nc1ccc(Oc2ccccc2)cc1 (stereo in doubt; 4r)		0.026	IC50 [3]: 0.06 µM
O=C(CN1CCCN(Cc2ccc(C(=O)O)cc2)CC1)Nc1ccc(Oc2ccccc2)cc1	0.18	0.07	
CN(CCCN(C)Cc1ccc(C(=O)O)cc1)CC(=O)Nc1ccc(OCC(O)c2ccccc2)cc1 (stereo not given)	0.21	0.019	
CN(CCCN(C)Cc1ccc(C(=O)O)cc1)CC(=O)Nc1ccc(Cc2ccccc2)cc1	0.07	0.003	
CN(CC(=O)Nc1ccc(Oc2ccccc2)cc1)C1CCCN(Cc2ccc(C(=O)O)cc2)CC1 (stereo not given)	0.38	0.16	
CN(CCN(C)Cc1ccc(C(=O)O)cc1)CC(=O)Nc1ccc(Oc2ccccc2)cc1	0.14	0.015	
CN(Cc1ccc(C(=O)O)cc1)C1CCCN(CC(=O)Nc2ccc(Oc3ccccc3)cc2)CC1 (stereo not given)	0.22	0.14	
CN(CCCN(C)Cc1ccc(C(=O)O)o1)CC(=O)Nc1ccc(Oc2ccccc2)cc1	0.44	0.028	
CN(Cc1ccc(C(=O)O)cc1)C1CCN(CC(=O)Nc2ccc(Oc3ccccc3)cc2)CC1	0.26	0.49	
CN(Cc1ccc(C(=O)O)cc1)CC1CCCCN1CC(=O)Nc1ccc(Oc2ccccc2)cc1 (stereo in doubt; 4o)	0.06	0.016	
CN(CCCN(C)Cc1ccc(C(=O)O)cc1)CC(=O)Nc1ccc(Oc2ccc(-c3ncco3)cc2)cc1	0.06	0.005	
CN(Cc1ccc(C(=O)O)cc1)CC1CCCN1CC(=O)Nc1ccc(Oc2ccccc2)cc1 (stereo in doubt; 4s)	0.06	0.017	

Continued, in another order:

IC50 [1] [µM]	IC50 [2] [µM]	SMILES	further results
0.16	0.007	CN(CCCN(C)Cc1ccc(C(=O)O)cc1F)CC(=O)Nc1ccc(Oc2ccccc2)cc1	
> 1	1	O=C(CN1CCN(Cc2ccc(C(=O)O)cc2)CC1)Nc1ccc(Oc2ccccc2)cc1	
1.5	0.11	CN(CCCC(=O)O)CCCN(C)CC(=O)Nc1ccc(Oc2ccccc2)cc1	
0.29	0.015	CN(CCCN(C)Cc1ccc(C(=O)O)cc1[N+](=O)[O-])CC(=O)Nc1ccc(Oc2ccccc2)cc1	
0.34	0.006	CN(CCCN(C)Cc1ccc(C(=O)O)c(F)c1)CC(=O)Nc1ccc(Oc2ccccc2)cc1	
0.23	0.018	CN(CCCCC(=O)O)CCCN(C)CC(=O)Nc1ccc(Oc2ccccc2)cc1	
> 1	0.033	CN(CCCN(C)Cc1ccc(S(N)(=O)=O)cc1)CC(=O)Nc1ccc(Oc2ccccc2)cc1	
0.36	0.01	CN(CCCN(C)Cc1ccc(C(=O)O)c(Br)c1)CC(=O)Nc1ccc(Oc2ccccc2)cc1	
0.23	0.016	CN(CCCN(C)Cc1ccc(C(=O)O)cc1)CC(=O)Nc1ccc(Oc2ccccc2F)cc1	
0.22	0.057	CN(CC(=O)Nc1ccc(Oc2ccccc2)cc1)C1CCN(Cc2ccc(C(=O)O)cc2)C1 (stereo in doubt; 4u)	
0.18	0.12	CN(CC(=O)Nc1ccc(Oc2ccccc2)cc1)C1CCN(Cc2ccc(C(=O)O)cc2)C1 (stereo in doubt; 4t)	
0.25	0.004	CN(CCCN(C)Cc1ccc(-c2nnn[nH]2)cc1)CC(=O)Nc1ccc(Oc2ccccc2)cc1	
> 1	0.33	CN(CCCNCC(=O)Nc1ccc(Oc2ccccc2)cc1)Cc1ccc(C(=O)O)cc1	
0.135	0.16	CN(C)CCCN(C)CC(=O)Nc1ccc(Oc2ccccc2)cc1	remaining at 1 h [4]: < 33%
0.03	0.007	CN(CC(=O)Nc1ccc(Oc2ccccc2)cc1)C[C@H]1CCCN1Cc1ccc(C(=O)O)cc1	half-life [5]: 2.6 h; clearance [6]: 1.68 L/h/kg; bioavailability [7]: 45%
> 1	0.37	O=C(CNCCCNCc1ccc(C(=O)O)cc1)Nc1ccc(Oc2ccccc2)cc1	
0.12	0.006	CN(CCCN(C)Cc1ccc(C(=O)O)cc1)CC(=O)Nc1ccc(Oc2ccccc2)cc1	half-life [5]: 0.9 h; clearance [6]: 2.28 L/h/kg; bioavailability [7]: 45%; remaining at 1 h [4]: > 90%
0.2	0.1	CN(CC(=O)Nc1ccc(Oc2ccccc2)cc1)C[C@@H]1CCCN1Cc1ccc(C(=O)O)cc1	
0.09	0.017	CN(CCCN(C)Cc1ccc(C(=O)O)cc1)CC(=O)Nc1ccc(Oc2ccc(Cl)cc2)cc1	
0.42	0.019	CN(CCCNCc1ccc(C(=O)O)cc1)CC(=O)Nc1ccc(Oc2ccccc2)cc1	
0.43	0.025	CN(CCCN(C)CC1CCC(C(=O)O)CC1)CC(=O)Nc1ccc(Oc2ccccc2)cc1 (stereo not given)	
0.35	0.09	CN(CCCN(C)Cc1ccccc1)CC(=O)Nc1ccc(Oc2ccccc2)cc1	remaining at 1 h [4]: < 33%
